Test results reported in publication PMC3341351, “Down-Regulation of GABAA Receptor via Promiscuity with the Vasoactive Peptide Urotensin II Receptor. Potential Involvement in Astrocyte Plasticity” (PLoS ONE, 2012).

How the values were obtained:
[1] = test system: GABAAR in astrocytes (mono-culture); assay: Patch-clamp responsiveness of astrocytes in mono-culture to isoguvacine; type: cell-based, rat; conditions: Iso 10^−4 M; n = 31
Method: Primary cultures of astrocytes were prepared as previously described. Briefly, cerebellum from 7-day-old (P7) Wistar rats were collected in DMEM/Ham-F12 (2∶1, v/v) culture medium supplemented with 2 mM glutamine, 1% insulin, 5 mM HEPES, 0.4% D(+)-glucose and 1% of the antibiotic-antimycotic solution. The tissues were disaggregated mechanically with a syringue equipped with a 1-mm gauge needle, and filtered through a 100-µm pore size mesh filter (Falcon, Becton Dickinson, Grenoble, France). Dissociated cells were resuspended in culture medium supplemented with 10% heat-inactivated FBS and seeded in 150-cm^2 culture flasks (Falcon) at a density of 20×10^6 cells/flask. Cells were incubated at 37°C in a humidified atmosphere (5% CO2) and the medium was changed twice a week. When cultures were confluent, the flasks were gently shaken on an orbital shaker at […] for 2 h. Dislodged cells were discarded and a second step of purification was performed at […] for 14–16 h. Remaining adhesive cells were collected by trypsination, centrifuged (800 g, 10 min) and plated in 150-cm^2 flasks. Suspended astrocytes were harvested and seeded in 24-well poly-L-lysine-coated plates. The purity of the cultures was previously assessed by counting the percentage of astrocytes immunostained with GFAP antibodies. The enriched cultures contained >99% astrocytes. […]

[2] = test system: GABAAR in cerebellar astrocytes (UT co-expressed); assay: Whole-cell patch-clamp of isoguvacine (Iso)-evoked depolarization/chloride current in cerebellar astrocytes co-cultured with granule neurons; type: cell-based, rat; conditions: Iso 10^−4 M; n = 78
Method: (§1) Primary Cell Culture of astrocytes and astrocyte-neurone co-culture
(§2) Primary cultures of astrocytes were prepared as previously described. Briefly, cerebellum from 7-day-old (P7) Wistar rats were collected in DMEM/Ham-F12 (2∶1, v/v) culture medium supplemented with 2 mM glutamine, 1% insulin, 5 mM HEPES, 0.4% D(+)-glucose and 1% of the antibiotic-antimycotic solution. The tissues were disaggregated mechanically with a syringue equipped with a 1-mm gauge needle, and filtered through a 100-µm pore size mesh filter (Falcon, Becton Dickinson, Grenoble, France). Dissociated cells were resuspended in culture medium supplemented with 10% heat-inactivated FBS and seeded in 150-cm^2 culture flasks (Falcon) at a density of 20×10^6 cells/flask. Cells were incubated at 37°C in a humidified atmosphere (5% CO2) and the medium was changed twice a week. When cultures were confluent, the flasks were gently shaken on an orbital shaker at […] for 2 h. Dislodged cells were discarded and a second step of purification was performed at […] for 14–16 h. Remaining adhesive cells were collected by trypsination, centrifuged (800 g, 10 min) and plated in 150-cm^2 flasks. Suspended astrocytes were harvested and seeded in 24-well poly-L-lysine-coated plates. The purity of the cultures was previously assessed by counting the percentage of astrocytes immunostained with GFAP antibodies. The enriched cultures contained >99% astrocytes.
(§3) For astrocyte-neuron co-culture, granule cell cultures were prepared from cerebella of P7 Wistar rats as described previously. Isolated cells were plated on 14-mm culture dishes coated with poly-L-lysine (5 mM) at a density of 1.5×10^6 cells/dish and incubated at 37°C in a humidified atmosphere (5% CO2) for 1 to 10 days before use. Culture medium consisted of DMEM/Ham's F12 (75%/25%) supplemented with 10% FBS, 2 mM glutamine, 5 µg/ml insulin, 25 mM KCl and 1% of antibiotic-antimycotic solution. Co-cultures are obtained by seeding granule cells (1.5×10^6 cells/ml) on cerebellar astrocytes plated in 24-well plates after 12 hours. Co-cultures are maintained in the specific medium for neuron and incubated at 37°C in an humidified atmosphere (5% CO2) for several days.
(§4) The conventional whole-cell configuration of the patch-clamp technique was used to study the GABA-gated currents in astrocytes and granule neurons, UT stably transfected CHO, CHO-UT, and CHO transiently transfected with diverse variants of UT and GABAAR subunits. After 24-h transfection, cell culture coverslips were placed in a small chamber (1.5 ml) on a stage of a right microscope DMLFSA (Leica, Heidelberg, Germany) and superfused continuously with the following bath solution containing (in mM): NaCl, 150; KCl, 2.5; HEPES, 5; CaCl2, 2; MgCl2, 1; glucose, 10 (pH 7.4 adjusted with NaOH). The patch pipettes were fabricated from 1.5 mm (outer diameter) soft glass tubes on a two-step vertical pipette puller (List-Medical, L/M-3P-A, Darmstadt, Germany). […] ATP and GTP were added to the internal solution used to fill electrode just before recording. All recordings were obtained at RT with cells voltage-clamped at −70 mV. The GABAA receptor agonist isoguvacine was prepared in the extracellular solution and was applied to cells by pneumatic pressure ejection. To prevent desenzitization, isoguvacine was more often ejected during 5 s at 2-min intervals. ATP, GTP, or guanosine 5′-O-(2-thiodiphosphate) (GDPβS) were administered through the patch pipette solution. We investigated the effect of competitive inhibition of GDP-GTP exchange by including GDPβS in the pipette solution (in addition to the normal amount of GTP). For GDPβS and the KIC, immediately following patch rupture, GABA current recordings were performed and the experiment was commenced after an equilibration period of 15 min. […]

[3] = target: T1, GABAAR in cerebellar astrocytes (UT co-expressed) (Rattus norvegicus, UniProt P49684); assay: as above; type: cell-based
T1 construct: Astrocytes, recognized by strong GFAP staining show UT immunoreactivity; endogenous in cells; host or cells: primary rat (P7 Wistar) cerebellar astrocytes co-cultured with cerebellar granule neurons
T1 sequence (P49684 1-386): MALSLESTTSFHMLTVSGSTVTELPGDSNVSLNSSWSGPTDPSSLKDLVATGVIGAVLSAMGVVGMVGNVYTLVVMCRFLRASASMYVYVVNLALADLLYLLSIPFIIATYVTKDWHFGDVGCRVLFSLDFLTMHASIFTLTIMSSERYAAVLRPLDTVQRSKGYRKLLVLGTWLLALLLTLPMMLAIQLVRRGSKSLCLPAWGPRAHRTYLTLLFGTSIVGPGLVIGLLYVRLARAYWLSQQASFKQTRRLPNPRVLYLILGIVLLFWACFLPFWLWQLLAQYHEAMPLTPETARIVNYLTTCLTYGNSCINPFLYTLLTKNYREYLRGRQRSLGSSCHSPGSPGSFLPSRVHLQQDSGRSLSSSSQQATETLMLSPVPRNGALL
Method: as §1, §2, §3, §4

Molecule: O=C(O)C1=CCNCC1 [Iso, isoguvacine]
- Cells responding to isoguvacine, astrocytes in mono-culture [1]: 12%
- Cells responding to isoguvacine, astrocytes cultured with granule neurons [2]: 48%

Molecule: UII: Urotensin II, species not stated at that place (rUII in astrocytes, hUII in CHO and human cells)
- Direct current activated ([3]; UII 10^−8 M, in some cells): activated a small inward current
- Recovery of the GABAAR current inhibition during washout ([3]; astrocytes): hardly recovered during washout
